{
  "source": "patent US9439839B2",
  "about": "“Cosmetic solution, method for producing cosmetic solution, and cosmetic method” (priority 2011, dated 2016)",
  "assay": "evaluation of moisturizing power with oil water content measuring apparatus",
  "assay_type": "in vivo",
  "details": "cosmetic solution diluted twice by water, applied to forearm flexor side; compared with propylene glycol and 1,3-butylene glycol",
  "from_the_text": "For the evaluation of moisturizing power, an oil water content measuring apparatus (WSK-P500U manufactured by Wave Cyber) was used. This measuring apparatus indicates the water content of the part of the skin to be measured by a relative value of 0 to 99. The part to be measured was the forearm flexor side.",
  "data": [
    {"smiles": "OCC(O)CO", "note": "[glycerin]", "values": [
      {"measurement": "moisturizing power", "result": "highest moisturizing power"}
    ]}
  ]
}
